Earlier results as cited in patent publication US12377034B2, “Method for dyeing keratinous material, comprising the use of an organosilicon compound, an effect pigment and a film-forming polymer II” (Henkel AG & Co. KGaA, priority 2019, dated 2025).

Conditions: for solubility in water: 25° C.

Row | solubility in water | solubility in water (in words) (at 25° C.) | SMILES
1 | more than 20 % by weight | – | CCN(Cc1cccc(S(=O)(=O)O)c1)c1ccc(C(=C2C=CC(=[N+](CC)Cc3cccc(S(=O)(=O)O)c3)C=C2)c2ccccc2S(=O)(=O)[O-])cc1 [Acid Blue 9]
2 | – | highly soluble | O=C(O)C1=NN(c2ccc(S(=O)(=O)O)cc2)C(=O)C1N=Nc1ccc(S(=O)(=O)O)cc1 (stereo not shown) [Acid Yellow 23, 4,5-dihydro-5-oxo-1-(4-sulfophenyl)-4-((4-sulfophenyl)azo)-1H-pyrazole-3-carboxylic acid]
3 | above 40 g/L | – | O=[N+]([O-])c1cc([N+](=O)[O-])c2ccc(S(=O)(=O)O)cc2c1O [Acid Yellow 9, 8-hydroxy-5,7-dinitro-2-naphthalenesulfonic acid]

Row | SMILES | solubility in water | solubility in water (in words) (at 25° C.)
4 | O=S(=O)(O)c1ccc(N=Nc2c(O)ccc3ccccc23)cc1 [Acid Orange 7, 4-[(2-hydroxy-1-naphthyl)azo]benzene sulphonate] | more than 7 g/L | –
